We go through eleven compounds from patent US20070004660A1, “Synergistic Modulation of Flt3 Kinase Using Alkylquinolines and Alkylquinazolines” (priority 2005, published 2007).

This assay concerns the target T1, wild-type FLT3 receptor (Homo sapiens, UniProt P36888).
T1 construct: host or cells: Baf3 (murine B cell lymphoma line), stably transfected
T1 sequence (P36888 27-993): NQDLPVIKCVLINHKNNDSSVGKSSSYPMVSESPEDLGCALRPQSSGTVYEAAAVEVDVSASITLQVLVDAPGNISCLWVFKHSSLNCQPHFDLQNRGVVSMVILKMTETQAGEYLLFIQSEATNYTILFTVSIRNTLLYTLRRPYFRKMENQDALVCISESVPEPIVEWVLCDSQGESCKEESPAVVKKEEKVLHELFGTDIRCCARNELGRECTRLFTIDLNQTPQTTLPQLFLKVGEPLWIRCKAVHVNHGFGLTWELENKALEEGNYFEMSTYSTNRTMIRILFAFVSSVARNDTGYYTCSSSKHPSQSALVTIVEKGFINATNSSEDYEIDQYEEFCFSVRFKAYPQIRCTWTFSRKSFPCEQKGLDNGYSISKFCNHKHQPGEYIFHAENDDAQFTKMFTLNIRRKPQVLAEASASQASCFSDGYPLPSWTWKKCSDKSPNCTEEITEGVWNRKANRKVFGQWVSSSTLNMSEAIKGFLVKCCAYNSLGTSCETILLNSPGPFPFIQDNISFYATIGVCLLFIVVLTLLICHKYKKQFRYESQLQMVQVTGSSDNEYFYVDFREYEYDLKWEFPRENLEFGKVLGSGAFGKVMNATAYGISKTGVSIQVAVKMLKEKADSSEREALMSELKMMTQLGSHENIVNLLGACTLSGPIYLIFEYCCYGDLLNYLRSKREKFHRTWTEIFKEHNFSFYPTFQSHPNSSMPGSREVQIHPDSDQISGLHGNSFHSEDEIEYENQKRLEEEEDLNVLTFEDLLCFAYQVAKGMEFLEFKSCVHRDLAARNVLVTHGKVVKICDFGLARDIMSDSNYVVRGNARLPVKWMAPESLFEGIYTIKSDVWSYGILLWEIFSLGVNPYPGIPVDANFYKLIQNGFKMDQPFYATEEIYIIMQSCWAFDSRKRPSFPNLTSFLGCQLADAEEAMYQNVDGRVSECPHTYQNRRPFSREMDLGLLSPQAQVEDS
The assay is described as follows: Cell-based FLT3 receptor ELISA (FLT ligand-induced phosphorylation in Baf3 FLT3 cells). Particulars: 100 ng/mL Flt ligand, uncertainty ±20%. The method in brief: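 Receptor phosphotyrosine measured by sandwich ELISA (anti-FLT3 capture, HRP anti-pTyr, luminescence) in FLT3-transfected murine Baf3 cells given 1 h compound pretreatment and 10 min 100 ng/mL FLT ligand after overnight low-serum starvation; triplicates, IC50 from nonlinear regression.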
Turning to `O=C(Nc1ccc(N2CCCC2)nc1)N1CCC(c2ncnc3cc(OCCN4CCOCC4)ccc23)CC1` [Example 95, 4-[7-(2-Morpholin-4-yl-ethoxy)-quinazolin-4-yl]-piperidine-1-carboxylic acid (6-pyrrolidin-1-yl-pyridin-3-yl)-amide], 25 nM corresponded to half-maximal inhibition (IC50).
The figure for `O=C1CCCN1CCCOc1ccc2c(C3CCN(C(=O)Nc4ccc(N5CCCC5)nc4)CC3)ncnc2c1` [Example 89, 4-{7-[3-(2-Oxo-pyrrolidin-1-yl)-propoxy]-quinazolin-4-yl}-piperidine-1-carboxylic acid (6-pyrrolidin-1-yl-pyridin-3-yl)-amide] is 1 nM.
The figure for `CCC(C)c1ccc(NC(=O)N2CCC(c3ncnc4cc(OC)c(OC)cc34)CC2)cc1` (centres unmarked) [Example 52, 4-(6,7-Dimethoxy-quinazolin-4-yl)-piperidine-1-carboxylic acid (4-sec-butyl-phenyl)-amide] is 7 nM; for `COc1cc2ncnc(C3CCN(C(=O)Nc4ccc(C5CCN(C(=O)OC(C)(C)C)CC5)cc4)CC3)c2cc1OC` [Example 63, 4-(4-{[4-(6,7-Dimethoxy-quinazolin-4-yl)-piperidine-1-carbonyl]-amino}-phenyl)-piperidine-1-carboxylic acid tert-butyl ester] it is 762 nM; for `COc1cc2ncnc(C3CCN(CC(=O)Nc4ccc(C(C)C)cc4)CC3)c2cc1OC` [Example 9, 2-[4-(6,7-Dimethoxy-quinazolin-4-yl)-piperidin-1-yl]-N-(4-isopropyl-phenyl)-acetamide] it is 7 nM.
In turn, `CN1CCCN(CCCOc2ccc3c(C4CCN(C(=O)Nc5ccc(N6CCOCC6)cc5)CC4)ncnc3c2)CC1` [Example 125, 4-{7-[3-(4-Methyl-[1,4]diazepan-1-yl)-propoxy]-quinazolin-4-yl}-piperidine-1-carboxylic acid (4-morpholin-4-yl-phenyl)-amide] returned a half-maximal inhibitory concentration (IC50) of 66 nM.
`CN1CCN(CCCOc2ccc3c(C4CCN(C(=O)Nc5cnc(N6CCCC6)nc5)CC4)ncnc3c2)CC1` [Example 105, 4-{7-[3-(4-Methyl-piperazin-1-yl)-propoxy]-quinazolin-4-yl}-piperidine-1-carboxylic acid (2-pyrrolidin-1-yl-pyrimidin-5-yl)-amide] had an IC50 of 98 nM.
The figure for `COc1cc2ncnc(C3CCN(C(=O)Nc4ccc(-c5cncnc5)cc4)CC3)c2cc1OC` [Example 58, 4-(6,7-Dimethoxy-quinazolin-4-yl)-piperidine-1-carboxylic acid (4-pyrimidin-5-yl-phenyl)-amide] is 265 nM; for `CCN(CC)CC#Cc1ccc2ncnc(C3CCN(C(=O)Nc4ccc(OC(C)C)cc4)CC3)c2c1` [Example 13, 4-[6-(3-Diethylamino-prop-1-ynyl)-quinazolin-4-yl]-piperidine-1-carboxylic acid (4-isopropoxy-phenyl)-amide] it is 27 nM.
For the compound `CC(C)Oc1ccc(NC(=O)N2CCC(c3ncnc4cc(OCCCNS(C)(=O)=O)ccc34)CC2)cc1` [Example 65, 4-[7-(3-Methanesulfonylamino-propoxy)-quinazolin-4-yl]-piperidine-1-carboxylic acid (4-isopropoxy-phenyl)-amide], it took 37 nM to reach half-maximal inhibition (IC50).
With `CN(C)C(=O)N1CCN(CCCOc2ccc3c(C4CCN(C(=O)Nc5ccc(N6CCOCC6)cc5)CC4)ncnc3c2)CC1` [Example 120, 4-(3-{4-[1-(4-Morpholin-4-yl-phenylcarbamoyl)-piperidin-4-yl]-quinazolin-7-yloxy}-propyl)-piperazine-1-carboxylic acid dimethylamide], inhibition was half-maximal at 23 nM (IC50).
